Among the data in patent publication US10077241B2 (Janssen Pharmaceutica NV, priority 2014, dated 2018) are EC50 values, retold here.

The structures appear in SMILES notation.

One test addresses T1, TGR5 (STC1 cell line) (Mus musculus, UniProt Q80SS6).
T1 sequence (Q80SS6 1-329): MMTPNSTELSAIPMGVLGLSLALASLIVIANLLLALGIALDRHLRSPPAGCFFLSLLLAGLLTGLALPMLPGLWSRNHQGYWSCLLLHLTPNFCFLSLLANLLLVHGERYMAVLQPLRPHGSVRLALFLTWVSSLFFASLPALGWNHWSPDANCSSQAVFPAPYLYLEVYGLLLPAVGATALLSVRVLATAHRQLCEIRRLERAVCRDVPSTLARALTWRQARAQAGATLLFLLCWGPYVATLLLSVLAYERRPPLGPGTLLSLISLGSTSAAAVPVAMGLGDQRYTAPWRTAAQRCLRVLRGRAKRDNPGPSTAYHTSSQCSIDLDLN
The experiment in a line: STC1 cAMP Agonist EC50 Determination.

Test [1] concerns the target T2, TGR5 (NCI-H716 cell line) (Homo sapiens, UniProt Q8TDU6).
T2 sequence (Q8TDU6 1-330): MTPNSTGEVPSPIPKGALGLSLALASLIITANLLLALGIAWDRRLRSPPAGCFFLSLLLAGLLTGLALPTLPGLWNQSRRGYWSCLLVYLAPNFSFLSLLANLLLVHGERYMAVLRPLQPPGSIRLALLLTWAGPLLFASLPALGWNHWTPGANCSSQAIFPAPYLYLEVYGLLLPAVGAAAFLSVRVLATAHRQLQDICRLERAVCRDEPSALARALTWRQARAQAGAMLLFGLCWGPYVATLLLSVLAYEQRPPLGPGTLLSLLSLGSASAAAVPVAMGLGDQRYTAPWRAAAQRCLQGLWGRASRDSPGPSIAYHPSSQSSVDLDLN
The experiment in a line: NCI-H716 cAMP Agonist EC50 Determination.
Protocol: Cells were cultured in suspension using RPM containing: 10% HI FBS, and 1× Penn/Strep and were cryostored (1E7 cells/vial in 5% DMSO).
A Normalized signal (NS) is generated by the Envision for each well ((Read 1/Read 2)×10,000).
The data from the Envision were imported to an Excel worksheet. nM cAMP is calculated for each well from the cAMP standard curves located on each plate by first calculating the slope and deriving the intercept (b).
[formula] [formula] [formula] EC50 values were determined from a 4-point fit (Hill equation) of a single 11-point compound dosing.

As usually defined, the EC50 is the concentration needed to bring the measured effect to its halfway point. High values mean a less potent agent, low ones a more potent agent. Turning to `COc1cc(C2CCCc3nc(SCc4ncccn4)n(-c4ccc(F)cc4)c32)ccc1Cl` (stereo not drawn) [Example 57, 7-(4-chloro-3-methoxyphenyl)-1-(4-fluorophenyl)-2-[(pyrimidin-2-ylmethyl)sulfanyl]-4,5,6,7-tetrahydro-1H-1,3-benzodiazole trifluoroacetic acid], the EC50 is 0.65 µM at TGR5 (STC1 cell line) and over 50 µM in test [1].
For `COc1cc(C2CCCc3nc(SCc4sccc4Cl)n(-c4ccc(F)cc4)c32)ccc1Cl` (stereo not drawn) [Example 58, 2-((3-chlorothiophen-2-yl)methylthio)-7-(4-chloro-3-methoxyphenyl)-1-(4-fluorophenyl)-4,5,6,7-tetrahydro-1H-benzo[d]imidazole trifluoroacetic acid], in that order: 1.1 µM and over 50 µM.
Take `COc1cc(C2CCCc3nc(SCc4c(F)c[n+]([O-])cc4F)n(-c4ccc(F)cc4)c32)ccc1Cl` (stereo not drawn) [Example 59, 4-((7-(4-chloro-3-methoxyphenyl)-1-(4-fluorophenyl)-4,5,6,7-tetrahydro-1H-benzo[d]imidazol-2-ylthio)methyl)-3,5-difluoropyridine 1-oxide trifluoroacetic acid]: the EC50 at TGR5 (STC1 cell line) is 2.02 µM; in test [1], over 50 µM.
For `COc1cc(C2CCCc3nc(SCc4c(Br)cncc4Br)n(-c4ccc(F)cc4)c32)ccc1Cl` (stereo not drawn) [Example 60, 2-((3,5-dibromopyridin-4-yl)methylthio)-7-(4-chloro-3-methoxyphenyl)-1-(4-fluorophenyl)-4,5,6,7-tetrahydro-1H-benzo[d]imidazole], in that order: 15.5 µM and over 50 µM.
For `COc1cc(C2CC(C)Cc3nc(SCc4c(F)cccc4Cl)n(-c4ccc(F)cc4)c32)ccc1Cl` (stereo not drawn) [Example 61, 7-(4-chloro-3-methoxyphenyl)-2-[[(2-chloro-6-fluorophenyl)methyl]sulfanyl]-1-(4-fluorophenyl)-5-methyl-4,5,6,7-tetrahydro-1H-1,3-benzodiazole], in that order: 3.89 µM and over 50 µM.
On the same counts, the results for `COc1ccc(C2CCCc3nc(SCc4c(F)cc(C#N)cc4F)n(-c4ccc(F)cc4)c32)cc1OC` (stereo not drawn) [Example 64, 4-(((7-(3,4-dimethoxyphenyl)-1-(4-fluorophenyl)-4,5,6,7-tetrahydro-1H-benzo[d]imidazol-2-yl)thio)methyl)-3,5-difluorobenzonitrile] are 0.15 µM and 5.34 µM.
Turning to `COc1ccc(C2CCCc3nc(SCc4c(F)cc(C(=O)O)cc4F)n(-c4ccc(F)cc4)c32)cc1OC` (stereo not drawn) [Example 65, 4-(((7-(3,4-dimethoxyphenyl)-1-(4-fluorophenyl)-4,5,6,7-tetrahydro-1H-benzo[d]imidazol-2-yl)thi)methyl)-3,5-difluorobenzoic acid], the half-maximal effective concentration (EC50) at TGR5 (STC1 cell line) is 3.75 µM; in test [1], over 50 µM.
For `COCCOCCOCCOCCNC(=O)c1cc(F)c(CSc2nc3c(n2-c2ccc(F)cc2)C(c2ccc(OC)c(OC)c2)CCC3)c(F)c1` (stereo not drawn) [Example 66, 4-(((7-(3,4-dimethoxyphenyl)-1-(4-fluorophenyl)-4,5,6,7-tetrahydro-1H-benzo[d]imidazol-2-yl)thio)methyl)-3,5-difluoro-N-(2,5,8,11-tetraoxatridecan-13-yl)benzamide], the concentration for a half-maximal effect (EC50) at TGR5 (STC1 cell line) came to 0.9 µM; in test [1] it was 2.4 µM.
For `COc1ccc(C2CCCc3nc(SCc4c(F)cc(OCCCl)cc4F)n(-c4ccc(F)cc4)c32)cc1OC` (stereo not drawn) [Example 67, 2-((4-(2-chloroethoxy)-2,6-difluorobenzyl)thio)-7-(3,4-dimethoxyphenyl)-1-(4-fluorophenyl)-4,5,6,7-tetrahydro-1H-benzo[d]imidazole], in that order: 0.5 µM and 8.34 µM.
Take `COCCOCCOCCOCCNC(=O)c1cc(F)c(CSc2nc3c(n2-c2ccc(F)cc2)C(c2cc(OC)c(OC)cc2Br)CCC3)c(F)c1` (stereo not drawn) [Example 68a, 4-(((7-(2-bromo-4,5-dimethoxyphenyl)-1-(4-fluorophenyl)-4,5,6,7-tetrahydro-1H-benzo[d]imidazol-2-yl)thio)methyl)-3,5-difluoro-N-(2,5,8,11-tetraoxatridecan-13-yl)benzamide]: the figures for the EC50 (on TGR5 (STC1 cell line); in test [1]) were 7.39 µM and 22 µM, respectively.
For `COCCOCCOCCOCCNC(=O)c1cc(F)c(CSc2nc3c(n2-c2ccc(F)cc2)C(c2cc(OC)c(OC)c(Br)c2Br)CCC3)c(F)c1` (stereo not drawn) [Example 68b, 4-(((7-(2,3-dibromo-4,5-dimethoxyphenyl)-1-(4-fluorophenyl)-4,5,6,7-tetrahydro-1H-benzo[d]imidazol-2-yl)thio)methyl)-3,5-difluoro-N-(2,5,8,11-tetraoxatridecan-13-yl) benzamide], in that order: 28.6 µM and over 50 µM.
Regarding `COc1ccc(C2CCCc3nc(SCc4c(F)cc(OCCN5CCCC5)cc4F)n(-c4ccc(F)cc4)c32)cc1OC` (stereo not drawn) [Example 69, 2-((2,6-difluoro-4-(2-(pyrrolidin-1-yl)ethoxy)benzyl)thio)-7-(3,4-dimethoxyphenyl)-1-(4-fluorophenyl)-4,5,6,7-tetrahydro-1H-benzo[d]imidazole], the concentration giving a half-maximal response (EC50) on TGR5 (STC1 cell line) came out at 0.85 µM; in test [1] it was 7.97 µM.
Regarding `COc1cccc(C2CCCc3nc(SCc4c(F)cncc4F)n(-c4ccc(F)cc4)c32)c1` (stereo not drawn) [Example 71, 2-(((3,5-difluoropyridin-4-yl)methyl)thio)-1-(4-fluorophenyl)-7-(3-methoxyphenyl)-4,5,6,7-tetrahydro-1H-benzo[d]imidazole], the results for the EC50 (on TGR5 (STC1 cell line); in test [1]) were 1.91 µM and over 50 µM, respectively.
For `COc1cccc(C2CCCc3nc(SCc4c(F)cncc4F)n(-c4ccc(F)c(OC)c4)c32)c1` (stereo not drawn) [Example 72, 2-(((3,5-difluoropyridin-4-yl)methyl)thio)-1-(4-fluoro-3-methoxyphen)-7-(3-methoxyphenyl)-4,5,6,7-tetrahydro-1H-benzo[d]imidazole], in that order: 0.91 µM and 35.2 µM.
On the same counts, the results for `COc1cc(C2CCCc3nc(SCc4c(F)cc(C#N)cc4F)n(-c4ccc(F)cc4)c32)ccc1F` (stereo not drawn) [Example 73, 3,5-difluoro-4-(((7-(4-fluoro-3-methoxyphenyl)-1-(4-fluorophenyl)-4,5,6,7-tetrahydro-1H-benzo[d]imidazol-2-yl)thio)methyl)benzonitrile] are 1.53 µM and 47.5 µM.
On the same counts, the results for `COc1cc(C2CCCc3nc(SCc4c(F)cc(C(=O)O)cc4F)n(-c4ccc(F)cc4)c32)ccc1F` (stereo not drawn) [Example 74, 3,5-difluoro-4-(((7-(4-fluoro-3-methoxyphenyl)-1-(4-fluorophenyl)-4,5,6,7-tetrahydro-1H-benzo[d]imidazol-2-yl)thio)methyl)benzoic acid] are 1.1 µM and over 50 µM.
Take `COCCOCCOCCOCCNC(=O)c1cc(F)c(CSc2nc3c(n2-c2ccc(F)cc2)C(c2ccc(F)c(OC)c2)CCC3)c(F)c1` (stereo not drawn) [Example 75, 3,5-difluoro-4-(((7-(4-fluoro-3-methoxyphenyl)-1-(4-fluorophenyl)-4,5,6,7-tetrahydro-1H-benzo[d]imidazol-2-yl)thio)methyl)-N-(2,5,8,11-tetraoxatridecan-13-yl)benzamide]: the half-maximal effective concentration (EC50) at TGR5 (STC1 cell line) was 2.76 µM; in test [1], over 50 µM.
For `COc1cc(C2(C)CCCc3nc(SCc4c(F)cc(OCCN(C)C)cc4F)n(-c4ccc(F)cc4)c32)ccc1Cl` (stereo not drawn) [Example 80, 2-(4-((7-(4-chloro-3-methoxyphenyl)-1-(4-fluorophenyl)-4,5,6,7-tetrahydro-7-methyl-1H-benzo[d]imidazol-2-ylthio)methyl)-3,5-difluorophenoxy)-N,N-dimethylethanamine], in that order: 2.94 µM and 19.2 µM.
Regarding `COc1cc(C2(C)CCCc3nc(SCc4c(F)cc(C(=O)O)cc4F)n(-c4ccc(F)cc4)c32)ccc1Cl` (stereo not drawn) [Example 81, 4-((7-(4-chloro-3-methoxyphenyl)-1-(4-fluorophenyl)-4,5,6,7-tetrahydro-7-methyl-1H-benzo[d]imidazol-2-ylthio)methyl)-3,5-difluorobenzoic acid trifluoroacetic acid], the EC50 was 1.75 µM on TGR5 (STC1 cell line) and over 50 µM in test [1].
For `COC(=O)[C@H](CCCNC(=N)N)NC(=O)c1cc(F)c(CSc2nc3c(n2-c2ccc(F)cc2)C(C)(c2ccc(Cl)c(OC)c2)CCC3)c(F)c1` (stereo partly drawn) [Example 82, (S)-methyl 2-(4-((7-(4-chloro-3-methoxyphenyl)-1-(4-fluorophenyl)-4,5,6,7-tetrahydro-7-methyl-1H-benzo[d]imidazol-2-ylthio)methyl)-3,5-difluorobenzamido)-5-guanidinopentanoate trifluoroacetic acid], in that order: 0.18 µM and 15.2 µM.
Take `COc1cc(C2(C)CCCc3nc(SCc4c(F)cc(C(=O)N[C@@H](CCCNC(=N)N)C(=O)O)cc4F)n(-c4ccc(F)cc4)c32)ccc1Cl` (stereo partly drawn) [Example 83, (S)-2-(4-((7-(4-chloro-3-methoxyphenyl)-1-(4-fluorophenyl)-4,5,6,7-tetrahydro-7-methyl-1H-benzo[d]imidazol-2-ylthio)methyl)-3,5-difluorobenzamido)-5-guanidinopentanoic acid trifluoroacetic acid]: the half-maximal effective concentration (EC50) at TGR5 (STC1 cell line) is 0.13 µM; in test [1] it was 17.2 µM.
